The numbers were not newly measured in US11707436B2, “Methods of treating inflammatory disorders and global inflammation with compositions comprising phospholipid nanoparticle encapsulations of NSAIDS” (NanoSphere Health Sciences, LLC, priority 2014, dated 2023), which cites them from elsewhere.

Converted amounts (≈) assume the structure as drawn.

The conditions of series [1]: clinical studies.
For series [2] the following is noted: for Solubility of NSAIDs at 25 C: source drugbank.ca.
Series [3] concerns NF-KappaB. To be noted: for inhibition of activation of the NF-KappaB pathway: concentrations measured in serum of treated patients; for inhibition of NF-kappaB activity: concentrations comparable to those used in therapy.
Series [4] relates to NF-KappaB. To be noted: highly variable efficacy.
For series [5] the following is noted: after removal of lower third molars.
The conditions of series [6]: renal colic.

Consider `CC(C(=O)O)c1ccc(N2CC=CC2)c(Cl)c1` (centres unmarked) [piroprofen], for which the “concentrations in CSF” value in series [1] was “minimal concentrations”.
`COc1ccc2c(c1)c(CC(=O)O)c(C)n2C(=O)c1ccc(Cl)cc1` [Indomethacin]: the “concentrations in CSF” value in series [1] is listed as “minimal concentrations”. In addition, in series [2], the “Solubility of NSAIDs at 25 C” value is “.937 mg/mL”.
As to `O=C([O-])c1ccccc1O.[Na+]` [salicylate, sodium salicylate], the “inhibition of activation of the NF-KappaB pathway” value in the series on NF-KappaB [3] is on record as “inhibit activation”.
`C=C(C)[C@@H]1CCC(C)=C[C@H]1c1c(O)cc(CCCCC)cc1O` [Cannabidiol]: the “NF-Kappa B activation, pro-inflammatory cytokines and mediators (TNF-alpha, iNOS)” value in the series with NF-Kappa B is reported as “attenuate”. In addition, the solubility in water result in series [2] (words only) is reported as “insolubility in water”.
Take `O=C(O)Cc1ccccc1Nc1c(Cl)cccc1Cl` [Diclofenac]: the “Solubility of NSAIDs at 25 C” value in series [2] was 50 mg/mL.
`COc1ccc2cc([C@H](C)C(=O)O)ccc2c1` [Naproxen]: the “inhibition of TNF-induced NF-KappaB activation” value in the series with NF-KappaB [4] is “inhibited”. In addition, the “inhibition of NF-kappaB activity” value in the series with NF-KappaB [3] is listed as “effectively inhibit”.
On to `COc1cc(/C=C/C(=O)CC(=O)/C=C/c2ccc(O)c(OC)c2)ccc1O` [curcumin], for which the “inhibition of TNF-induced NF-KappaB activation” value in the series with NF-KappaB [4] is “inhibited”.
`O=C(O)c1ccccc1O` [Salicylic acid]: in series [2], the “Solubility of NSAIDs at 25 C” value is 3 mg/mL and the “solubility water at 25° C” value is 3 mg/mL (≈ 21.7 mM).
On to `Oc1ccc(C=Cc2cc(O)cc(O)c2)cc1` [resveratrol], for which the “inhibition of TNF-induced NF-KappaB activation” value with NF-KappaB [4] is “inhibited”.
Take `CC(=O)Oc1ccccc1C(=O)O` [Acetylsalicylic acid]: the “inhibition of TNF-induced NF-KappaB activation” value in the series with NF-KappaB [4] was “inhibited”. Further, the “Solubility of NSAIDs at 25 C” value in series [2] was 3.3 mg/mL. For the same compound, in the series on NF-KappaB [3], the “inhibition of NF-kappaB activity” value is “effectively inhibit” and the “inhibition of activation of the NF-KappaB pathway” value is on record as “inhibit activation”.
Take `CC1=C(CC(=O)O)c2cc(F)ccc2/C1=C\c1ccc([S+](C)[O-])cc1` (centres unmarked) [sulindac]: the “inhibition of TNF-induced NF-KappaB activation” value with NF-KappaB [4] is “inhibited”.
Take `CC/C(=C(\c1ccccc1)c1ccc(OCCN(C)C)cc1)c1ccccc1` [tamoxifen]: in the series with NF-KappaB [4], the “inhibition of TNF-induced NF-KappaB activation” value is on record as “inhibited”.
With `CC(C)Cc1ccc(C(C)C(=O)O)cc1` (centres unmarked) [Ibuprofen], the “inhibition of TNF-induced NF-KappaB activation” value in the series on NF-KappaB [4] is “inhibited”. Besides, in series [2], the “Solubility of NSAIDs at 25 C” value is 21 mg/mL and the “solubility water at 25° C” value was 21 mg/mL (≈ 102 mM). Also, the “inhibition of NF-kappaB activity” value in the series on NF-KappaB [3] is reported as “effectively inhibit”.
For the compound `CC(C(=O)O)c1cccc(C(=O)c2ccccc2)c1` (centres unmarked) [Ketoprofen], the “concentrations in CSF” value in series [1] was “minimal concentrations”.
On to `CN1C(C(=O)Nc2ccccn2)=C(O)c2ccccc2S1(=O)=O` [piroxicam], for which the “pain scores, oral versus sublingual route” value in series [5] is “no significant differences”. Also, in series [6], the “efficacy of sublingual versus IM injection” value was “as effective as the IM injection”.
